The target of assay [1] is T1, SARS-CoV-2 3CL protease (3CL-PR) (Severe acute respiratory syndrome coronavirus 2, UniProt P0DTC1). The conditions noted are these: cited from earlier work; for Ki: read-out: Ki (3CL-PR).
In assay [2] the target is T2, human cathepsin L (Homo sapiens, UniProt P07711).
T2 construct: His-tag (only implied by the Ni-NTA capture and the pET-28a(+) vector); host or cells: E. coli C43(DE3)
Particulars: read-out: Ki (hCatL), cited from earlier work.

The test system of assay [3] is SARS-CoV-2 (USA_WA1/2020 isolate). Briefly: Vero E6-based microneutralization assay of SARS-CoV-2 infection (CPE). Type of assay: cell-based. Particulars: for fold less potent in inhibiting SARS-CoV-2 infection than Nirmatrelvir and PF-835231: ratio of EC50.
The next assay has as its target T3, human cathepsin B (Homo sapiens, UniProt P07858).
T3 construct: purchased Millipore Sigma or R&D Systems
Nature of the assay: Kinetic assay of human cathepsin B inhibition (Z-LR-AMC fluorescence). It counts as biochemical.

Assay [4] addresses T1, SARS-CoV-2 3CL protease (3CL-PR). Nature of the assay: biochemical. It counts as biochemical.
For assay [5], the target named is T2, human cathepsin L. Nature of the assay: Kinetic assay of human cathepsin L inhibition (Z-LR-AMC / Z-FR-AMC fluorescence). Type of assay: biochemical. Particulars: for mode of inhibition of hCatL: inhibitor vs variable substrate.
The mark [6] stands for this setting: Severe acute respiratory syndrome coronavirus 2, Vero C1008, 72 h, Vero E6 cells, 2 μM CP-100356, CPE after 3 days, read-out: Anti-SARS-CoV-2 Activity EC50.
[7] abbreviates: 25 °C, pH 5.5, time-dependent inhibitors at t ∼ 30 min (steady-state), read-out: Ki * (nM) hCat B.
The mark [8] stands for this setting: 25 °C, pH 7.5, time-dependent inhibitors at t ∼ 30 min (steady-state), read-out: Ki * (nM) 3CL-PR.
[9] abbreviates: 25 °C, pH 5.5, time-dependent inhibitors at t ∼ 30 min (steady-state), read-out: Ki * (nM) hCat L.
The mark [10] stands for this setting: initial rates, t = 0–3 min, read-out: Ki (hCatB) from initial rates vi/v0.

These results are taken from publication PMC11744766, “Dual Inhibitors of SARS-CoV-2 3CL Protease and Human Cathepsin L Containing Glutamine Isosteres Are Anti-CoV-2 Agents” (Journal of the American Chemical Society, 2025).

Each structure is given as a SMILES string. Values joined by “and” are separate entries in the source; they are usually repeats but may differ in a detail not shown here. Equal entries are not always repeated. Where two headings read alike, the source gives them in different places.

T2 sequence (P07711 114-333): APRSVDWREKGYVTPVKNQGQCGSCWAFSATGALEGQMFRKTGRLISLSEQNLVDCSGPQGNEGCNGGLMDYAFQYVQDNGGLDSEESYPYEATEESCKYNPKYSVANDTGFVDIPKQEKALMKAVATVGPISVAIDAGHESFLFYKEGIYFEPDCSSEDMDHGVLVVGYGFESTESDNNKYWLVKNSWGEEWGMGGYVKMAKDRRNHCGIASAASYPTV

Take `CN1CCN(C(=O)NC(Cc2ccccc2)C(=O)NC2Cc3cccnc3OC2O)CC1` (centres unmarked) [Compound 2]: the Ki in assay [1] (compound 2) is 250 nM; at human cathepsin L [2] (compounds 1 and 2), 1.03 nM and 1 nM.

The EC50 is the midpoint of the concentration-response curve. As to `O=CC(Cc1ccc[nH]c1=O)NC(=O)C(CC1CCCCC1)NC(=O)c1cc2ccccc2[nH]1` (centres unmarked) [Compound 5], the EC50 in assay [3] (setting [6]) came to 1.9 µM. Moreover, the “fold less potent in inhibiting SARS-CoV-2 infection than Nirmatrelvir and PF-835231” value in assay [3] (Vero E6 cells) was “eight-fold less active”. For the same compound, the Ki worked out at 101 ± 3 nM on human cathepsin B (setting [7]), 27 ± 5 nM in assay [4] (setting [8]) and 9 ± 2 nM at human cathepsin L [5] (setting [9]). In assay [4] (CHA for Leu at P2), the “fold improvement in inhibition of 3CL-PR, 5 over 4” value was found to be 1.5 fold. Besides, the “fold improvement in inhibition of hCatL, 5 over 4” value on human cathepsin L [5] (CHA for Leu at P2) is given as 2 fold. In addition, the “mode of inhibition of hCatL” value at human cathepsin L [5] is “competitive inhibitor”.

For the compound `COc1cccc2[nH]c(C(=O)N[C@@H](CC(C)C)C(=O)N[C@H](C=O)Cc3cocn3)cc12` [Compound 8], the EC50 amounted to 0.62 µM in assay [3] (Severe acute respiratory syndrome coronavirus 2, Vero C1008, 72 h, read-out: Anti-SARS-CoV-2 Activity EC50 (μM), Vero E6 cells, 2 μM CP-100356, CPE after 3 days) and 0.625 µM in assay [3] (Vero E6 cells, 2 μM CP-100356, CPE after 3 days, read-out: Anti-SARS-CoV-2 Activity EC50). Also, the values for the Ki (on human cathepsin B (setting [7]); in assay [4] (setting [8]); on human cathepsin L [5] (setting [9])) were 189 ± 9 nM, 124 ± 5 nM and 1.1 ± 0.1 nM, respectively.

Consider `CN1CCN(C(=O)N[C@@H](Cc2ccccc2)C(=O)N[C@H](/C=C/S(=O)(=O)c2ccccc2)CCc2ccccc2)CC1` [Compound K11777, reference compound], for which, in assay [1] (K11777), the Ki is > 10000 nM.

Take `COc1cccc2[nH]c(C(=O)NC(CC(C)C)C(=O)NC(C=O)Cc3ccc[nH]c3=O)cc12` (centres unmarked) [Compound 6]: the EC50 in assay [3] (setting [6]) was found to be 1.25 µM. For the same compound, in assay [3] (Vero E6 cells), the “fold less potent in inhibiting SARS-CoV-2 infection than Nirmatrelvir and PF-835231” value is “five-fold less potent”. Moreover, in assay [3] (not evaluated under the same conditions), the “fold less anti-CoV-2 activity in comparison to AC1115” value was found to be 4 fold. Moreover, the Ki at human cathepsin B (setting [7]) is 100 ± 2 nM; at human cathepsin B (setting [10]), 65 ± 3 nM; in assay [4] (setting [8]) it was 2.6 ± 0.4 nM; in assay [4] (initial rates, t = 0–180 s, read-out: Ki (3CL-Pro) from initial rates vi/v0), 20 ± 2 nM; at human cathepsin L [5] (setting [9]), 0.6 nM and 0.55 nM; on human cathepsin L [5] (initial rates, t = 0–180 s, read-out: Ki (hCatL) from initial rates vi/v0), 2.3 ± 0.4 nM. Moreover, in assay [4], the “fold more potent vs 3CL-PR, 6 compared to 8” value was 50 fold. The “fold improvement in inhibition of 3CL-PR, 6 over 4” value in assay [4] (4-methoxy group on indole) was found to be 15 fold. Besides, the “fold improvement in inhibition of hCatL, 6 over 4” value at human cathepsin L [5] (4-methoxy group on indole) came out at 30 fold.

With `CN1CCN(C(=O)NC(Cc2ccccc2)C(=O)NC2Cc3ccccc3OC2O)CC1` (centres unmarked) [Compound 1], in assay [1] (compound 1), the “inhibition of 3CL-PR” value is reported as “did not inhibit” and the Ki was > 10000 nM.

In the case of `COc1cccc2[nH]c(C(=O)N[C@@H](CC(C)C)C(=O)N[C@@H](C[C@@H]3CCNC3=O)C(=O)CO)cc12` [PF-835231, reference compound], the EC50 in assay [3] (setting [6]) worked out at 0.23 µM. In addition, the Ki in assay [4] (setting [8]) is 0.23 ± 0.09 nM. The “fold more potent than Nirmatrelvir vs 3CL-PR” value in assay [4] (ratio of Ki) is “more than 10 fold”.

Regarding `CC(C)(C)[C@H](NC(=O)C(F)(F)F)C(=O)N1C[C@H]2[C@@H]([C@H]1C(=O)N[C@H](C#N)C[C@@H]1CCNC1=O)C2(C)C` [Nirmatrelvir, reference compound], the EC50 in assay [3] (setting [6]) is 0.23 µM.

Consider `CC(C)C[C@H](NC(=O)OCc1ccccc1)C(=O)N[C@@H](CC1CCCCC1)C(=O)N[C@H](C=O)Cc1ccc[nH]c1=O` [Compound 3], for which the EC50 in assay [3] (setting [6]) stood at 0.47 µM. Moreover, the “fold less potent in inhibiting SARS-CoV-2 infection than Nirmatrelvir and PF-835231” value in assay [3] (Vero E6 cells) worked out at 2 fold. The Ki was found to be 280 ± 5 nM at human cathepsin B (setting [7]); 290 nM on human cathepsin B (setting [10]); 9 ± 2 nM in assay [4] (setting [8]); 16 nM in assay [4] (competitive pattern at < 10 min incubation (Figure S1B), read-out: Ki (3CL-PR) before longer incubation); 8 ± 1 nM at human cathepsin L [5] (setting [9]). In addition, the “mode of inhibition of 3CL-PR” value in assay [4] (inhibitor vs variable substrate) was “competitive inhibitor”. The “fold less potent vs 3CL-PR than Nirmatrelvir” value in assay [4] (ratio of Ki) worked out at 3 fold. Also, the “mode of inhibition of hCatL” value on human cathepsin L [5] was “competitive inhibitor”.

As to `CC(C)CC(NC(=O)c1cc2ccccc2[nH]1)C(=O)NC(C=O)Cc1ccc[nH]c1=O` (centres unmarked) [Compound 4], in assay [3] (setting [6]), the EC50 was 15 µM. Besides, the Ki on human cathepsin B (setting [7]) was determined as 210 ± 20 nM; in assay [4] (setting [8]), 38 ± 4 nM; on human cathepsin L [5] (setting [9]), 17 ± 1 nM.

For `CC(C)C[C@H](NC(=O)c1cc2ccccc2[nH]1)C(=O)N[C@H](C=O)C[C@@H]1CCNC1=O` [AC1115, reference compound], the Ki is 2.4 nM in assay [1] (AC1115) and ~0.06 nM at human cathepsin L [2] (AC1115).
